In publication PMC10873978, “Novel tetrahydroisoquinolines as DHFR and CDK2 inhibitors: synthesis, characterization, anticancer activity and antioxidant properties” (BMC Chemistry, 2024):

Legend:
MCF7 cell line = experiment: In vitro cytotoxic activity, MTT method, MCF7; format: cell-based, human; conditions: for IC50: MTT
Summary of the method: (§1)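 Monolayers formed over 24 h at 37 °C from 10^5 cells/mL were treated with graded compound concentrations, doxorubicin serving as reference. Viability came from MTT reduction over 1–5 h (5% CO2), absorbance at 560 nm with 620 nm background subtraction.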

A549 cell line = experiment: In vitro cytotoxic activity, MTT method, A549
Summary of the method: as §1

`CC(=O)c1ccc(NC(=O)c2sc3nc(C)c4c(c3c2N)CC(C)(O)C(C(C)=O)C4c2ccc(N(C)C)cc2)cc1` (stereo not shown) [Compound 8d, 7-Acetyl-N-(4-acetylphenyl)-1-amino-5,8-dimethyl-8-hydroxy-6-(4-N,N-dimethylaminophenyl)-6,7,8,9-tetrahydrothieno[2,3-c]isoquinoline-2-carboxamide] showed an IC50 (MCF7 cell line; Homo sapiens, MCF7, MCF7 cell line) of 0.17 µM, a Toxicity % (MCF7 cell line; MCF7, Conc. 0.0487 µMol) of 21.79% and a Viability % (MCF7 cell line; MCF7, Conc. 0.0487 µMol) of 78.2125%. It also gave a Viability % (MCF7 cell line; MCF7, Conc. 0.0975 µMol) of 54.4424%, a Toxicity % (MCF7 cell line; MCF7, Conc. 0.195 µMol) of 54.13% and a Viability % (MCF7 cell line; MCF7, Conc. 0.195 µMol) of 45.87%. The Toxicity % (MCF7 cell line; MCF7, Conc. 0.391 µMol) was 65.48%, the Viability % (MCF7 cell line; MCF7, Conc. 0.391 µMol) was 34.52% and the Toxicity % (MCF7 cell line; MCF7, Conc. 0.781 µMol) was 88.6%. It also gave a Viability % (MCF7 cell line; MCF7, Conc. 0.781 µMol) of 11.4%, a Toxicity % (MCF7 cell line; MCF7, Conc. 1.562 µMol) of 93.83% and a Viability % (MCF7 cell line; MCF7, Conc. 1.562 µMol) of 6.168%. For the same compound, the Toxicity % (MCF7 cell line; MCF7, Conc. 3.125 µMol) was 94.61%, the Viability % (MCF7 cell line; MCF7, Conc. 3.125 µMol) was 5.392% and the Toxicity % (MCF7 cell line; MCF7, Conc. 6.25 µMol) was 96.41%. The Viability % (MCF7 cell line; MCF7, Conc. 6.25 µMol) was 3.595%, the Toxicity % (MCF7 cell line; MCF7, Conc. 12.5 µMol) was 97.06% and the Viability % (MCF7 cell line; MCF7, Conc. 12.5 µMol) was 2.941%. It also gave a Toxicity % (MCF7 cell line; MCF7, Conc. 25 µMol) of 97.55%, a Viability % (MCF7 cell line; MCF7, Conc. 25 µMol) of 2.451% and an IC50 (MCF7 cell line; MCF7 cell line) of 0.117 ± 0.004 µM. It also gave a Toxicity % (A549 cell line; A549, Conc. 0.04875 µMol) of 13.49%, a Toxicity % (A549 cell line; A549, Conc. 0.0975 µMol) of 15.39% and a Toxicity % (A549 cell line; A549, Conc. 0.195 µMol) of 19.17%. It also gave a Viability % (A549 cell line; A549, Conc. 0.195 µMol) of 80.83%, a Toxicity % (A549 cell line; A549, Conc. 0.391 µMol) of 43.87% and a Viability % (A549 cell line; A549, Conc. 0.391 µMol) of 56.13%. For the same compound, the Toxicity % (A549 cell line; A549, Conc. 0.781 µMol) was 53.45%, the Viability % (A549 cell line; A549, Conc. 0.781 µMol) was 46.55% and the Toxicity % (A549 cell line; A549, Conc. 1.562 µMol) was 68.4%. It also gave a Viability % (A549 cell line; A549, Conc. 1.562 µMol) of 31.6%, a Toxicity % (A549 cell line; A549, Conc. 3.125 µMol) of 82.68% and a Viability % (A549 cell line; A549, Conc. 3.125 µMol) of 17.32%. The Toxicity % (A549 cell line; A549, Conc. 6.25 µMol) was 88.4%, the Viability % (A549 cell line; A549, Conc. 6.25 µMol) was 11.6% and the Toxicity % (A549 cell line; A549, Conc. 12.5 µMol) was 96.41%. The Viability % (A549 cell line; A549, Conc. 12.5 µMol) was 3.59%, the Toxicity % (A549 cell line; A549, Conc. 25 µMol) was 96.65% and the Viability % (A549 cell line; A549, Conc. 25 µMol) was 3.353%. It also gave an IC50 (A549 cell line; Homo sapiens, read-out: IC50 ± SD) of 0.515 ± 0.002 µM.
